Data on twelve compounds can be found in PubChem BioAssay AID180 (DTP/NCI, 2004).

Several values for one entry are separate records, joined by “and”; a condition that tells them apart may be missing. Equal entries are not always repeated.

What is called T/C is the result in the treated group divided by that in the control group, in per cent.

The test relates to BDF1 mice, Adenocarcinoma 755 s.c., tumor weight T/C. Put plainly: NCI In Vivo Anticancer Drug Screen. Data for tumor model Adenocarcinoma 755 (subcutaneous) in B6D2F1 (BDF1) mice. Particulars: endpoint: mean tumor weight, higher = larger tumour. The method, then:
The antitumor activity of compounds was measured in mice bearing transplantable tumors. Survival or tumor size were measured and the results are expressed as the measurement made in the treated group (T) divided by the measurement made in the vehicle treated control group (C). The tumor model used in this assay is Adenocarcinoma 755 (subcutaneous) in B6D2F1 (BDF1) mice

Setting [1] is: dose: 25.0 mg/kg/injection, schedule: Q01DX011 (ip), vehicle: carboxymethylcellulose (CMC).

As for `CN(C)N=Nc1ccc(-c2ccc(N=NN(C)C)cc2)cc1`, the T/C was 92 % of control (dose: 17.5 mg/kg/injection, schedule: Q01DX011 (ip), vehicle: other); 56 % of control (dose: 31.2 mg/kg/injection, schedule: Q01DX011 (ip), vehicle: other); 72 % of control (dose: 35.0 mg/kg/injection, schedule: Q01DX011 (ip), vehicle: other); 70 % of control (dose: 50.0 mg/kg/injection, schedule: Q01DX011 (ip), vehicle: water); 46 % of control (dose: 62.5 mg/kg/injection, schedule: Q01DX011 (ip), vehicle: other); 75 % of control (dose: 70.0 mg/kg/injection, schedule: Q01DX011 (ip), vehicle: other). Moreover, the T/C is, setting by setting: (dose: 100.0 mg/kg/injection, schedule: Q01DX011 (ip), vehicle: water) 39 % of control; (dose: 125.0 mg/kg/injection, schedule: Q01DX011 (ip), vehicle: other) 32 % of control; (dose: 140.0 mg/kg/injection, schedule: Q01DX011 (ip), vehicle: other) 40 % of control; (dose: 150.0 mg/kg/injection, schedule: Q01DX011 (ip), vehicle: water) 46 % of control; (dose: 200.0 mg/kg/injection, schedule: Q01DX011 (ip), vehicle: water) 61 % of control.
On to `O=S(=O)(NCc1ccccc1)c1ncnc2nc[nH]c12`, for which the T/C runs as follows: (dose: 12.5 mg/kg/injection, schedule: Q01DX011 (ip), vehicle: carboxymethylcellulose (CMC)) 73 % of control; under setting [1], 3 % of control; (dose: 50.0 mg/kg/injection, schedule: Q01DX011 (ip), vehicle: carboxymethylcellulose (CMC)) 1 % of control.
For `C[C@]12CC[C@H](OC3OC(CO)C(O)C(O)C3O)C[C@H]1CC[C@@H]1[C@@H]2CC[C@]2(C)[C@@H](C3=CCOC3=O)CC[C@]12O` (stereo not given in full), the T/C is 34 % of control (dose: 0.13 mg/kg/injection, schedule: Q01DX011 (ip), vehicle: saline); 35 % of control (dose: 0.25 mg/kg/injection, schedule: Q01DX011 (ip), vehicle: saline); 22 % of control and 44 % of control (dose: 0.5 mg/kg/injection, schedule: Q01DX011 (ip), vehicle: saline); 3 % of control (dose: 1.0 mg/kg/injection, schedule: Q01DX011 (ip), vehicle: saline).
In the case of `Cn1c(=O)c2cc[nH]c2n(C)c1=O`, the T/C runs as follows: (dose: 30.0 mg/kg/injection, schedule: Q01DX011 (ip), vehicle: carboxymethylcellulose (CMC)) 87 % of control; (dose: 60.0 mg/kg/injection, schedule: Q01DX011 (ip), vehicle: carboxymethylcellulose (CMC)) 100 % of control.
Take `CSc1nc(N)nc2c1ncn2CCCl`: the T/C is 65 % of control (dose: 10.0 mg/kg/injection, schedule: Q01DX011 (ip), vehicle: saline); 70 % of control (dose: 20.0 mg/kg/injection, schedule: Q01DX011 (ip), vehicle: saline); 73 % of control (dose: 40.0 mg/kg/injection, schedule: Q01DX011 (ip), vehicle: saline); 74 % of control (dose: 80.0 mg/kg/injection, schedule: Q01DX011 (ip), vehicle: saline).
For `CN(C)S(=O)(=O)c1ncc2[nH]cnc2n1`, the T/C under setting [1] was 116 % of control; the T/C (dose: 75.0 mg/kg/injection, schedule: Q01DX011 (ip), vehicle: carboxymethylcellulose (CMC)) was 98 % of control; the T/C (dose: 225.0 mg/kg/injection, schedule: Q01DX011 (ip), vehicle: carboxymethylcellulose (CMC)) is 84 % of control.
Consider `CN(C)CCCN1c2ccccc2Sc2ccc(Cl)cc21`, for which the T/C (dose: 11.25 mg/kg/injection, schedule: Q01DX011 (ip), vehicle: methylcellulose (MC)) was 44 % of control; the T/C (dose: 11.25 mg/kg/injection, schedule: Q01DX011 (ip), vehicle: saline) was 59 % of control; the T/C (dose: 22.5 mg/kg/injection, schedule: Q01DX011 (ip), vehicle: methylcellulose (MC)) is 28 % of control; the T/C (dose: 22.5 mg/kg/injection, schedule: Q01DX011 (ip), vehicle: saline) is 47 % of control; the T/C (dose: 45.0 mg/kg/injection, schedule: Q01DX011 (ip), vehicle: methylcellulose (MC)) is 33 % of control; the T/C (dose: 45.0 mg/kg/injection, schedule: Q01DX011 (ip), vehicle: saline) was 38 % of control. For the same compound, under “dose: 90.0 mg/kg/injection, schedule: Q01DX011 (ip), vehicle: methylcellulose (MC)”, the T/C is 25 % of control.
`c1ccc2c(c1)ccc1cc3c(ccc4ccccc43)cc12`: the T/C is 24 % of control (dose: 12.5 mg/kg/injection, schedule: Q01DX011 (ip), vehicle: methylcellulose (MC)); 44 % of control (dose: 25.0 mg/kg/injection, schedule: Q01DX011 (ip), vehicle: methylcellulose (MC)); 60 % of control (dose: 25.0 mg/kg/injection, schedule: Q01DX011 (ip), vehicle: other); 42 % of control (dose: 50.0 mg/kg/injection, schedule: Q01DX011 (ip), vehicle: other); 36 % of control (dose: 100.0 mg/kg/injection, schedule: Q01DX011 (ip), vehicle: other); 24 % of control and 25 % of control (dose: 400.0 mg/kg/injection, schedule: Q01DX011 (ip), vehicle: methylcellulose (MC)). In addition, the T/C was 31 % of control (dose: 600.0 mg/kg/injection, schedule: Q01DX011 (ip), vehicle: methylcellulose (MC)) and 12 % of control (dose: 600.0 mg/kg/injection, schedule: Q01DX011 (ip), vehicle: other).
In the case of `CC(C)C(Sc1nc(N)nc2nc[nH]c12)C(=O)O` (stereo not given), the T/C was 113 % of control (dose: 23.7 mg/kg/injection, schedule: Q01DX011 (ip), vehicle: carboxymethylcellulose (CMC)); 81 % of control (dose: 47.5 mg/kg/injection, schedule: Q01DX011 (ip), vehicle: carboxymethylcellulose (CMC)); 83 % of control (dose: 95.0 mg/kg/injection, schedule: Q01DX011 (ip), vehicle: carboxymethylcellulose (CMC)); 64 % of control (dose: 190.0 mg/kg/injection, schedule: Q01DX011 (ip), vehicle: carboxymethylcellulose (CMC)).
`C/C(=N\NC(=O)c1ccncc1)c1ccc(Cl)cc1Cl`: the T/C is 41 % of control (dose: 30.0 mg/kg/injection, schedule: Q01DX011 (ip), vehicle: methylcellulose (MC)) and 58 % of control (dose: 60.0 mg/kg/injection, schedule: Q01DX011 (ip), vehicle: methylcellulose (MC)).
With `CC/C(=C(\CC)c1ccc(OC)cc1)c1ccc(O)cc1`, the T/C is, setting by setting: (dose: 15.0 mg/kg/injection, schedule: Q01DX011 (sc), vehicle: steriod suspending solution) 68 % of control; (dose: 30.0 mg/kg/injection, schedule: Q01DX011 (sc), vehicle: steriod suspending solution) 69 % of control; (dose: 60.0 mg/kg/injection, schedule: Q01DX011 (sc), vehicle: steriod suspending solution) 40 % of control; (dose: 120.0 mg/kg/injection, schedule: Q01DX011 (sc), vehicle: other) 37 % of control and 42 % of control; (dose: 120.0 mg/kg/injection, schedule: Q01DX011 (sc), vehicle: steriod suspending solution) 26 % of control.
`CCOC(=O)CCCc1ccc(N=NN(C)CC(C)C)cc1`: the T/C was 47 % of control (dose: 125.0 mg/kg/injection, schedule: Q01DX011 (ip), vehicle: carboxymethylcellulose (CMC)) and 28 % of control (dose: 250.0 mg/kg/injection, schedule: Q01DX011 (ip), vehicle: carboxymethylcellulose (CMC)).
